The values that follow come from ChEMBL document CHEMBL1201862, “PubChem BioAssay data set” (2004).

The target of one data set is Cytochrome P450 2C19 (Homo sapiens, UniProt P33261). Kind of data set: Cytochrome panel assay with activity outcomes. Panel member name: p450-cyp2c19 Compounds with AC50 equal or less than 10 uM are considered active. It counts as functional.
The nature of data set [1]: inhibitors of intracellular T. cruzi replication, confirmation, NIH3T3 host cells, beta-gal luminescence (AID 2044).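 Also: intracellular parasites grown in NIH/3T3 mouse fibroblasts as host cells; luminescent beta-galactosidase reporter signal from transgenic T. cruzi replicating inside host cells; inhibitors lower the luminescence signal.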 It counts as functional, cell-based.
The nature of data set [2]: cytotoxicity toward NIH3T3 fibroblasts, dose response, counter-screen, cell-based, ATP luminescence, mouse fibroblasts (AID 2010).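 Also: cells exposed to compound for about 90 hours before reading.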 It counts as functional. On the technique in general: Counterscreens check selectivity or assay interference.
In data set [3] the target is T1, Rac GTPase-activating protein 1 (Homo sapiens, UniProt Q9H0H5).
T1 sequence (Q9H0H5 whole entry): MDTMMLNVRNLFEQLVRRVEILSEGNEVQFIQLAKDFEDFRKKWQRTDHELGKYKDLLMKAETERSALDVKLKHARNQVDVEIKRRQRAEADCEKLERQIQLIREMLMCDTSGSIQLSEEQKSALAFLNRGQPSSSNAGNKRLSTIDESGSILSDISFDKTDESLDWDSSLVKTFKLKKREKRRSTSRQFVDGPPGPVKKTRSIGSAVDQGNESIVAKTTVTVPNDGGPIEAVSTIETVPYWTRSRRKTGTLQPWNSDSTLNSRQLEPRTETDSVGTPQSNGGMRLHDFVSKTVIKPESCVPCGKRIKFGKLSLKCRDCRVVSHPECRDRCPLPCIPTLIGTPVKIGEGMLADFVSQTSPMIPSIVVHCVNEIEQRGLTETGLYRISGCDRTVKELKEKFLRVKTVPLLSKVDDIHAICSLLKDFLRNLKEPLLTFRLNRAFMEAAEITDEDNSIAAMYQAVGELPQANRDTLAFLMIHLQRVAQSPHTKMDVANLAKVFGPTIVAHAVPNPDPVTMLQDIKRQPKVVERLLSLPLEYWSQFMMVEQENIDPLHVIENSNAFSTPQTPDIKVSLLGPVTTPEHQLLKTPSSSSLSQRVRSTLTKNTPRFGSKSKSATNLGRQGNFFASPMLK
Put plainly: MgcRacGAP GTPase-activating activity inhibitors, confirmation, biochemical, ADP Hunter fluorescence, primary and confirmatory (AID 624330). It is filed as functional.

Data set [4] is described as follows: HEp-2 cell cytotoxicity, dose response, cytotoxicity control for RSV inhibitor project, HTS (AID 2410). It counts as functional. As to conditions: human respiratory syncytial virus.
For another data set, the target named is T2, Cytochrome P450 1A2 (Homo sapiens, UniProt P05177).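 Also: PubChem cytochrome P450 panel assay, CYP1A2 panel member.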
T2 sequence (P05177 whole entry): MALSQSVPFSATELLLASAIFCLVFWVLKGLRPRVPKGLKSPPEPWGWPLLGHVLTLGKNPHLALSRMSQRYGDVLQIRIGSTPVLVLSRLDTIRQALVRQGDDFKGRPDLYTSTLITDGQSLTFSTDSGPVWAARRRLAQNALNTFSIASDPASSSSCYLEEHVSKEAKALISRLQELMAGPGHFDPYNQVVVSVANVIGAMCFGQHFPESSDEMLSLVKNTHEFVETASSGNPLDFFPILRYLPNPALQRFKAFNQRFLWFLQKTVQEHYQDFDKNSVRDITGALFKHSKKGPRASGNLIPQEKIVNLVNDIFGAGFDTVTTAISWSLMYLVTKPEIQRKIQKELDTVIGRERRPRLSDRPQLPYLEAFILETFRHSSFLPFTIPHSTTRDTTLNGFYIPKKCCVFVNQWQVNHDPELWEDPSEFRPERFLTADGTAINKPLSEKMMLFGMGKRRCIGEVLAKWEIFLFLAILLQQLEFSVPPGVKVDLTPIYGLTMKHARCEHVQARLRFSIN

Structures are written as SMILES. Active and inactive are the calls of the source.

Sequence of Cytochrome P450 2C19 (P33261 whole entry): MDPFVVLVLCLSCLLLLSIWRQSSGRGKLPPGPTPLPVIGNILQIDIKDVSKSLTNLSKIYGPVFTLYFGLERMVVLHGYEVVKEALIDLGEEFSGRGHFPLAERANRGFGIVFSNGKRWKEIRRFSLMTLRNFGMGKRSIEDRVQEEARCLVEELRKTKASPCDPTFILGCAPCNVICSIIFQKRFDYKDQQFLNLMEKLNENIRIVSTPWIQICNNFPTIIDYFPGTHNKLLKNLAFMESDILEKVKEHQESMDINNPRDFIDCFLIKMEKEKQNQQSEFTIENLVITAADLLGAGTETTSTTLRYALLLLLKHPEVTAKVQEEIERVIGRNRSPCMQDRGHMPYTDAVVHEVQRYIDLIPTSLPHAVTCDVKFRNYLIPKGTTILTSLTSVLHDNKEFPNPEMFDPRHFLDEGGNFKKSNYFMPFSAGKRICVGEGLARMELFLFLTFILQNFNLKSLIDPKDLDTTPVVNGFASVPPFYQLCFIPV

On to `COC(=O)[C@@]1(Cc2ccc(OC)cc2)[C@H]2c3cc(C(=O)N4CCCC4)n(Cc4ccccn4)c3C[C@H]2CN1C(=O)c1ccccc1`, for which, on Cytochrome P450 2C19 (read-out: AC50), the AC50 is 39.8 µM (inconclusive).
As for `Cc1cccc(NS(=O)(=O)c2cc(C(=O)N3CCc4ccccc4C3)ccc2Cl)c1C`, the values for the EC50 in data set [1] and in data set [2] were 2.18 µM (active) and > 60 µM (not active), respectively.
For `Cc1ccccc1OCCCN1CCCC1`, the AC50 at Cytochrome P450 2C19 (read-out: AC50) is 10 µM (inconclusive).
`Cc1cccc(OCC(=O)N2CCN(Cc3ccncc3)CC2)c1`: the IC50 in data set [3] was 82.9 µM (active).
Turning to `CN(C)CCCN(C(=O)c1cccs1)c1nc2cc3c(cc2s1)OCO3`, the EC50 was 0.163 µM (active) in data set [1] and > 60 µM (inconclusive) in data set [2].
For the compound `Cc1nc(N2CCOCC2)nc(N2CCCCC2C)c1[N+](=O)[O-]` (stereo unspecified), in data set [4], the CC50 was 21.9 µM (active).
For `C[C@@]12C=CC(=O)C=C1CC[C@@H]1[C@@H]2[C@H](O)C[C@]2(C)[C@@H]1CC[C@]2(O)C(=O)CO`, the AC50 entry at Cytochrome P450 2C19 is “inconclusive”.
As for `CCn1c(N=C(S)Nc2ccccc2)nc2ccccc21`, the values for the EC50 in data set [1] and in data set [2] were 0.53 µM (active) and > 60 µM (inconclusive), respectively.
Turning to `N#C[C@@H](/N=N\c1ccccc1C(=O)O)C(N)=O`, the AC50 result at Cytochrome P450 2C19 is recorded as “inconclusive”.
For the compound `CSc1ccccc1OCc1cc(C(=O)N(C)C2CCCc3ccccc32)no1` (stereo unspecified), in data set [4], the CC50 was 20.4 µM (active).
Turning to `Oc1ccc(N2CCN(Cc3ccc(OCCCN4CCCCC4)cc3)CC2)cc1`, the EC50 in data set [1] is 0.114 µM (active); in data set [2], > 30 µM (not active).
For the compound `Cc1ccc(NC(=O)CCC(=O)NNC(=O)c2cccs2)c(C)c1`, the AC50 on Cytochrome P450 2C19 (read-out: AC50) is 28.2 µM (inconclusive).
For `CCc1noc(C)c1C(=O)Nc1ccc(S(=O)(=O)N2CCC(C)CC2)cc1`, the CC50 in data set [4] was 32.9 µM (active).
As for `COC(=O)c1ccc(-c2sc3nc(N4CCOCC4)c4c(c3c2N)CCCC4)o1`, the figures for the EC50 in data set [1] and in data set [2] were 2.63 µM (active) and 13.2 µM (active), respectively.
As for `CCCCN(C)C(=O)C1CCN(Cc2cccc(OCc3ccccc3)c2)CC1`, in data set [3], the IC50 was 172 µM (active).
Regarding `COc1ccccc1CCNC1CCC(C(C)(C)C)CC1` (stereo unspecified), the EC50 is 1.37 µM (active) in data set [1] and > 60 µM (not active) in data set [2].
`COc1ccc2nc(Nc3ccccc3)sc2c1`: the CC50 in data set [4] was 33.6 µM (active).
With `Cc1nn(Cc2c(F)c(F)c(F)c(F)c2F)c(C)c1NC(=O)c1cccc(COc2ccc(Cl)cc2)c1`, the AC50 at Cytochrome P450 1A2 is 12.6 µM (inconclusive).
Take `O=c1c2c([N+](=O)[O-])cc([N+](=O)[O-])cc2[s+]([O-])n1Cc1ccccc1` (stereo unspecified): the IC50 in data set [3] was 46.6 µM (active).
`O=C(c1ccco1)N(CCCN1CCOCC1)c1nc(-c2ccc(Cl)cc2)cs1`: the EC50 in data set [1] was 1.8 µM (active); in data set [2], > 60 µM (not active).
As to `Cc1ccc(CNc2ncc(-c3ccccc3)n2C)o1`, the IC50 in data set [3] was 83.2 µM (active).
Turning to `Cc1n[nH]c(-c2ccc(OCc3cnn(-c4ccccc4)c3)cc2O)c1Oc1ccc(Cl)cc1`, the EC50 was 2.43 µM (active) in data set [1] and > 60 µM (not active) in data set [2].
Consider `O=C(Cc1ccccc1)N1CCN(Cc2ccc(F)cc2)CC1`, for which, in data set [3], the IC50 was 130 µM (active).
On the same count and under the same terms, the result for `Oc1ccc(Nc2ncnc3ccccc23)cc1` reads 15.5 µM (active).
For the compound `COC(=O)C1Cc2c([nH]c3ccccc23)C2(CCN(Cc3ccccc3)CC2)N1` (stereo unspecified), the results for the EC50 in data set [1] and in data set [2] were 1.6 µM (active) and 10.1 µM (active), respectively.
The matching figures for `COc1cccc(CNc2ccc3c(c2)CCC3)c1`: 7.93 µM (active) and > 60 µM (not active).
As to `CN1c2ccccc2Oc2nnc(Cl)cc21`, the CC50 in data set [4] was 43.3 µM (active).
Consider `O=[N+]([O-])c1nn(-c2ccc3c(c2)OCCO3)[n+]([O-])c1NCCCO`, for which the values for the EC50 in data set [1] and in data set [2] were 0.75 µM (active) and > 60 µM (not active), respectively.
For the compound `CC(C)=NNc1ncnc2[nH]cnc12`, the AC50 on Cytochrome P450 1A2 is 0.794 µM (inconclusive).
With `COc1ccc(C(=O)/C=C/c2ccc(F)cc2)c(OC(=O)c2ccc([N+](=O)[O-])cc2)c1`, in data set [4], the CC50 is 20.5 µM (active).
Take `COc1cc(CN2CCC(C(=O)N3CCN(c4ccccc4F)CC3)CC2)ccc1O`: in data set [3], the IC50 was 110 µM (active).
The same measure, in the same setting: the value for `Nc1nc2c(s1)CCc1ccccc1-2` was 41.4 µM (active).
With `Cc1cc(C)c(S(=O)(=O)c2ccccc2Cl)c(Cl)n1`, the EC50 in data set [1] is 2.32 µM (active); in data set [2] it was > 60 µM (not active).
Regarding `COc1nc(OCCNC(C)=O)nc(N(C)C)n1`, the AC50 at Cytochrome P450 1A2 is 39.8 µM (inconclusive).
`Nc1ccc(N2CCCCC2)c(Cl)c1`: the IC50 in data set [3] was 46.4 µM (active).
As for `O=C(O)CCC(=O)CCC(=O)c1ccccc1`, on Cytochrome P450 2C19 (read-out: AC50), the AC50 is 39.8 µM (inconclusive).
Take `COc1ccc(CC(=O)NCc2ccccn2)cc1OC`: the AC50 on Cytochrome P450 1A2 was 14.1 µM (inconclusive).
Regarding `COc1ccccc1/C=C/[C@@H]1C[C@H]2CN(Cc3cccc(Cl)c3)C(=O)[C@]23CCCN13`, the CC50 in data set [4] was 38.4 µM (active).
In the case of `O=c1c(CCc2ccccc2)nc2cncnc2n1Cc1ccccc1Cl`, the AC50 at Cytochrome P450 1A2 is 12.6 µM (inconclusive).
As for `O=C(O)[C@H](Cc1c[nH]c2ccccc12)N1C(=O)c2ccccc2C1=O`, the concentration at half-maximal activity (AC50) result at Cytochrome P450 2C19 is on record as “inconclusive”.
For the compound `Cc1ccc2nc(-c3ccncc3)cc(C(=O)NCCc3ccc(F)cc3)c2c1`, the EC50 in data set [1] was 1.7 µM (active); in data set [2], > 60 µM (not active).
The like results for `Cc1ccc(Nc2c([N+](=O)[O-])nn(-c3ccc(Cl)cc3)[n+]2[O-])cc1C` were, in that order, 0.747 µM (active) and > 60 µM (not active).
With `CCCCNc1[nH]c(=S)nc2cc(OC)c(OC)cc12`, in data set [3], the IC50 is 61.8 µM (active).
With `CCCCc1c(O)nc2ccc(C)cc2c1C`, the CC50 in data set [4] was 26.6 µM (active).
As for `CN(C)c1oc(-c2ccc(OCc3ccc(Cl)cc3)cc2)nc1C#N`, the EC50 in data set [1] is 8.31 µM (active); in data set [2], > 60 µM (not active).
Turning to `CCOC(=O)N1CCN(C(=O)c2ccc(NC(C)=O)cc2)CC1`, at Cytochrome P450 2C19 (read-out: AC50), the AC50 was 22.4 µM (inconclusive).
`O=C(NCc1ccccc1Cl)c1cnccn1`: the AC50 at Cytochrome P450 2C19 (read-out: AC50) is 20 µM (inconclusive); at Cytochrome P450 1A2 it was 28.2 µM (inconclusive).
For `COc1ccc([C@H]2CN(c3ccc(OC)cc3)C(=O)[C@@H]2CC(=O)Nc2ccccc2)cc1`, the half-inhibitory concentration (IC50) in data set [3] is 115 µM (active).
On the same count and under the same terms, the value for `N#Cc1c(O)nsc1Nc1ccccc1` was 79.5 µM (active).
As for `O=C1NC(=O)/C(=C/c2cccc([N+](=O)[O-])c2)N1`, the 50% cytotoxic concentration (CC50) in data set [4] was 31.2 µM (active).
Turning to `Oc1ccc(/C=N/Nc2cc(N3CCOCC3)nc(N3CCOCC3)n2)cc1`, in data set [3], the half-maximal inhibitory concentration (IC50) was 45.3 µM (active).
For `Cc1ccc(-c2ccc(/C=N\NC(=O)C3C(=O)NCC3c3ccccc3)o2)cc1Cl` (stereo unspecified), the CC50 in data set [4] is 13 µM (active).
`C/C(=N\c1ccc(O)cc1)c1sc2ccccc2c1O`: in data set [3], the IC50 is 123 µM (active).
Consider `O=C(N/N=C/c1ccc([N+](=O)[O-])o1)C1CCCC1`, for which the results for the concentration for a half-maximal effect (EC50) in data set [1] and in data set [2] were 0.429 µM (active) and > 60 µM (not active), respectively.
As to `C/C(=N\NC(=O)c1cc(-c2cccc(OC(C)C)c2)nc2ccccc12)c1cccnc1`, the figures for the EC50 in data set [1] and in data set [2] were 0.611 µM (active) and > 30 µM (not active), respectively.
As for `CCOc1cc(/C=N/NC(=O)c2ccc(=O)n(C)c2)ccc1O`, in data set [3], the IC50 was 59.6 µM (active).
Turning to `O=C1Nc2ccc(S(=O)(=O)O)cc2/C1=N/Nc1ccccc1[N+](=O)[O-]`, the AC50 at Cytochrome P450 1A2 is 1 µM (inconclusive).
The same measure, in the same setting: the value for `NNC(N)=O` [HYDRAZINECARBOXAMIDE] was 39.8 µM (inconclusive).

A word on the AC50: it is the midpoint of the concentration-response curve, whichever way the signal moves. Broadly, the EC50 is the concentration needed to bring the measured effect to its halfway point. As a reminder, the IC50 is the concentration needed to halve the response being measured. The term CC50 denotes the concentration giving 50% cytotoxicity.
